Measurements: US12564190B2, “Biobased herbicide enhancer agent and method for using the same” (priority 2021, dated 2026)

Legend:
Type in all cases: in vivo
potato plants = test: Desiccation of potato plants, field plots, visual evaluation 15 days after treatment; conditions: three herbicides tested
Source text: The desiccant was applied by spraying.

Lemna minor = test: Herbicide activity on Lemna minor in vitro, fresh weight reduction after one week; conditions: fresh weight reduction compared to untreated plants, 7-day exposure, all chemicals 10 mg/L
Method: The experiment was carried out in Lemna minor growing in vitro conditions. Lemna minor (duckweed) was bought in the local market. A stock culture was maintained on modified Hoagland medium in a controlled environment. The pH of the medium was adjusted to 6.0, and the plants were grown under static conditions in a plant growth chamber at 25±2° C., light/dark regime of 16 h/8 h.
For the experiments, fronds free from any visible chlorosis were taken from the stock cultures and exposed to the appropriate treatment. For each treatment, we used six repetitions with three fronds per repetition as the initial frond number. Individual fronds were transferred to a 12 well multiplate containing Hoagland medium (control), Hoagland medium containing polyferulates, herbicides or the combination as shown in Table 9. All chemicals were evaluated at the same concentration (10 mg/L). The multiplate was covered with a transparent cover to prevent evaporation. The herbicide activity was evaluated as fresh weight reduction compared to untreated plants after one week of incubation in the described conditions.

Echinochloa colona = test: Herbicide activity on Echinochloa colona plants, visual evaluation 20 days after treatment; conditions: E. colona, 20 DAT, application rate 110 g a.i. ha^−1
Source text: Echinochloa colona is a cosmopolitan weed common in crops (mainly rice, maize and vegetables), gardens, roadsides, disturbed sites, waste areas and pastures. It also grows along waterways, on the margins of lakes and ponds, in swamps and wetlands, and in other damp habitats. It has the potential to invade natural areas and completely outcompete native vegetation. This weed pose a significant threat to rice productivity globally and are usually reported as noxious weeds in several economically important crops around the world. E. colona has vigorous growth traits and high seed production since each E. colona plant can produce up to 42,000 seeds. The experiment in Echinochloa colona plants was carried out in independent pots and in four replications. […] The products were applied by spraying. The herbicide activity was visually evaluated 20 days after treatment.

For `COc1cc(/C=C/C(=O)O)ccc1O` [Ferulic acid, (2E)-3-(4-hydroxy-3methoxyphenyl) prop-2-enoic acid], the “Effect in combination with the herbicides tested (synergism or antagonism according to Colby)” value (potato plants) was “antagonist”.

`COC(=O)Nc1cccc(OC(=O)Nc2cccc(C)c2)c1` [Phenmedipham] was tested, and the Herbicide activity (Lemna minor) was 3%.

In the case of Diferulic acid, the “Effect in combination with the herbicides tested (synergism or antagonism according to Colby)” value (potato plants) is reported as “antagonist”.

In the case of `CCCC(=NOCC(C)Oc1ccc(Cl)cc1)C1=C(O)CC(C2CCCSC2)CC1=O` (stereo not shown) [Profoxydim], the Herbicide activity (Lemna minor) is reported as 45% and the Herbicide activity (Echinochloa colona) is reported as 34.

`COC(=O)c1cccc(C)c1S(=O)(=O)NC(=O)Nc1nc(OCC(F)(F)F)nc(N(C)C)n1` [Triflusulfuron-methyl] showed a Herbicide activity (Lemna minor) of 34%.

`CCOC1Oc2ccc(OS(C)(=O)=O)cc2C1(C)C` (stereo not shown) [Ethofumesate] gave a Herbicide activity (Lemna minor) of 0%.
